{"source": "patent US20060258703A1", "about": "“Remedy for pruritus comprising piperidine derivative as the active ingredient” (ONO PHARMACEUTICAL CO., LTD., priority 2003, published 2006)", "system": "ovalbumin-induced eye scratching behavior in actively sensitized male Hartley guinea pigs", "assay": "inhibitory effect on eye itching using albumin induced eye itching model", "format": "in vivo, guinea pig", "details": "for number of eye scratching times / eye scratching behavior inhibition ratio: 10 μL/eye instilled 30 min before ovalbumin, n=8; for number of eye scratching times: counted for 60 min, average; for eye scratching behavior inhibition ratio: ratio to control (average)", "experimental": "The inhibitory effect on eye itching of piperidine derivatives of the present invention was studied using albumin induced eye itching model.\n1. The test of inhibitory effect on eye itching using albumin induced eye itching model\nAluminum hydroxide gel absorption ovalbumin (20 μg/mL)was dissolved in physiological saline solution, each solution ([…]) was injected subconjunctivally to the both eyeballs of five-week-old male Hartley guinea pigs to sensitize them actively. 14 days after sensitization, 1.0% (W/V) of ovalbumin physiological saline solution was instilled into both their eyes, 10 μL/eye, respectively.\nAs test compounds, a suspension of 0.01% (W/V) and 0.1% (W/V) of {4-cyano-4-[3-(cyclopentyloxy)-4-(difluoromethoxy)phenyl]piperidine-1-yl}acetic acid monohydrate (hereinafter, it is the compound A) in 0.1% hydroxypropylmethylcellulose was prepared and it was instilled into both eyes of the above-mentioned guinea pigs, 10 μL/eye, respectively, 30 minutes before the instillation of ovalbumin. 0.1% hydroxypropylmethylcellulose was used as control.\nThe behavior of guinea pigs for 60 minutes after ovalbumin instillation was video recorded. The inhibitory effect on eye itching was evaluated by counting each number of eye scratching times in case of instillation of each test compound solution and control. […] In addition, the number of example is eight. eye scratching behavior inhibition ratio=100−([the number of eye scratching times of the test compound]÷[the number of eye scratching times of control])×100", "data": [{"smiles": "N#CC1(c2ccc(OC(F)F)c(OC3CCCC3)c2)CCN(CC(=O)O)CC1.O", "note": "[Compound A, {4-cyano-4-[3-(cyclopentyloxy)-4-(difluoromethoxy)phenyl]piperidine-1-yl}acetic acid monohydrate]", "values": [{"measurement": "number of eye scratching times", "setting": "0.01% (W/V) suspension in 0.1% hydroxypropylmethylcellulose", "value": 44.6, "unit": "times"}, {"measurement": "eye scratching behavior inhibition ratio", "setting": "0.01% (W/V) suspension", "value": 34.4, "unit": "%"}, {"measurement": "number of eye scratching times", "setting": "0.1% (W/V) suspension in 0.1% hydroxypropylmethylcellulose", "value": 29.0, "unit": "times"}, {"measurement": "eye scratching behavior inhibition ratio", "setting": "0.1% (W/V) suspension", "value": 57.4, "unit": "%"}, {"measurement": "number of eye scratching times compared to control (in words)", "setting": "guinea pigs given 0.01% and 0.1% eye instillation, extent almost depends on concentration", "value": "decreases significantly compared to control"}]}]}
